Experimental data reported in US11104677B2, “Toll-like receptor 9 antagonists” (FRAUNHOFER-GESELLSCHAFT ZUR FÖRDERUNG DER ANGEWANDTEN …, priority 2015, dated 2021).
Where two headings read alike, the source gives them in different places.

Target: T1, TLR9 (Homo sapiens, UniProt Q9NR96)
T1 construct: expressed in transfected cells; host or cells: NIH 3T3 fibroblasts (mouse), stably transfected, NF-kB driven SEAP reporter
T1 sequence (Q9NR96 26-1032): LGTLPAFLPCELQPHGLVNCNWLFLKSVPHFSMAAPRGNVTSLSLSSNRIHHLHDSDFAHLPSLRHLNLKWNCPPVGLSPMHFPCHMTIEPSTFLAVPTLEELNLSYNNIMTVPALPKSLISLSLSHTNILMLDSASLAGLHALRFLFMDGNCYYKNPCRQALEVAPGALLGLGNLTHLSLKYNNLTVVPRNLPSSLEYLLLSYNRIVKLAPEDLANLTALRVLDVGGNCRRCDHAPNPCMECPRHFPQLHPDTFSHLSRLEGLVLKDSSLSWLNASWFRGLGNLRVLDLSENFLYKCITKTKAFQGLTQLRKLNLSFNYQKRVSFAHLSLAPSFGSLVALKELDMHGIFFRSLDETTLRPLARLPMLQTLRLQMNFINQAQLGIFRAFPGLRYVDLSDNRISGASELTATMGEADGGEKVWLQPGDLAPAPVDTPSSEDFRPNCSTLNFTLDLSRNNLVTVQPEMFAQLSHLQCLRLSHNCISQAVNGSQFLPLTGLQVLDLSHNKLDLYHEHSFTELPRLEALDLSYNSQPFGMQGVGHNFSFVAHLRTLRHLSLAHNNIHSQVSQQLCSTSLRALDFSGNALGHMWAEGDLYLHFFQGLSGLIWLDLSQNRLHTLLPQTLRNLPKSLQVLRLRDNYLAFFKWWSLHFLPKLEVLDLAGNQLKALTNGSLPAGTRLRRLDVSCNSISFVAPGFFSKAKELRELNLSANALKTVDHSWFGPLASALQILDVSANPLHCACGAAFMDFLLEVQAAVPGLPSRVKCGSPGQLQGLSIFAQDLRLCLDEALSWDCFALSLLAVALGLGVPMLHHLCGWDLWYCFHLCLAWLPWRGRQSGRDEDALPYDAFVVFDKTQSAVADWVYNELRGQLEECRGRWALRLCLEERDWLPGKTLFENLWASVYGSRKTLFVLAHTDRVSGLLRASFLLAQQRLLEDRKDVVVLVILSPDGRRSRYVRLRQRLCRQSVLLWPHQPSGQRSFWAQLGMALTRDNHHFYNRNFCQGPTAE
Assay: cell-based reporter assay (NIH 3T3 reporter cell line expressing TLR9, NF-kB driven SEAP, stimulated with CpG ODN 2216)
Details: for IC50: read-out: IC50 in
Method: In context with the present invention, the ‘IC50 value’ is the half maximum inhibitory concentration which is a measure of the effectiveness of a substance inhibiting the function of the TLR9. The IC50 value can be determined by a functional antagonist assay or a competition binding assay. Preferably, the IC50 value is determined by the cell-based reporter assay in section 3, below, of the examples.
A cell based test-system that allows PAMPs to be identified and differentiated via pattern recognition receptors (PRRs) in a reporter gene assay was used (DE 10 2006 031 483, EP 2 041 172). For this assay human PRRs and co-receptors were stably transfected and expressed in NIH 3T3 fibroblasts. This cell line expresses no other PRRs and contains a reporter gene which is activated by PRR-activation. The induction of receptor complexes by their ligands leads, after a signalling cascade, to an activation of transcription factor NF-kB, which regulates the expression of an additional integrated reporter gene, a secreted alkaline phosphatase (SEAP) (Burger-Kentischer, A.; Abele, I. S.; Finkelmeier, D.; Wiesmüller, K.-H.; Rupp, S., A new cell-based innate immune receptor assay for the examination of receptor activity, ligand specificity, signalling pathways and the detection of pyrogens. J. Immunol. Methods 2010, 358 (1), 93-103).
This test system mimics elements of the innate human immune system and can selectively recognize a large number of PAMPs with high sensitivity. Consequently, the PRR-specific cell-based high-throughput feature of the reporter cell lines will provide a fast, flexible and convenient means for lead compound screening in the pharmaceutical drug development fields. For the in vitro screening of the top candidates identified at IDR, the Fraunhofer IGB used this cell-based reporter system to identify TLR9 antagonists in order to determine their activity as well their biocompatibility. Within a first step the NIH3T3 cell line expressing TLR9 was used to measure the inhibitory effect of the TLR9 antagonists.
For the experiment the reporter cell line expressing TL9 was plated in 96-well cell culture plates at a density of 0.3×10^5 cells in DMEM media supplemented with 10% FCS (Invitrogen), 1% L-glutamine (200 mM Invitrogen) and 1% Penicillin-Streptomycin (PenStrep: 100×, Invitrogen). The cells were incubated for 16 h to grow adherent monolayers at 37° C. in a 5% saturated CO2 humidified atmosphere. After overnight incubation, the media was removed and replaced by DMEM medium supplemented with 1% PenStrep, 1% L-glutamine and 0.5% FCS. The media change is important to avoid a unspecific background signal, caused by active remaining phosphatases present in the FCS. The cells are then stimulated with a specific ligand non-methylated CpG ODN 2216 agonist (Invivogen) and the potential antagonists using different concentrations, namely within a range of concentrations of the potential antagonists starting with 0.025 μM (for the antagonist with the highest activity) up to 14 mM for the antagonists with lowest activities.
The ODN ligand has the sequence 5′-ggGGGACGA:TCGTCgggggg-3′ (SEQ ID No. 1). Those represented by capital letters are phosphodiesters, and those in small letters are phosphorothioate. The Palindrome is underlined.
The cells were again incubated in a humidified atmosphere for 16h leading to the expression or reduced expression of SEAP and its secretion into the media. Binding of the antagonist leads to a block of the TLR9, resulting in no or in a reduced expression of the reporter gene (SEAP). Therefore, 50 μl supernatant were taken from the cells and transferred into a 96-well PS microplate flat bottom (Greiner BIO-ONE). The enzyme substrate reaction was initiated by adding 50 μl of the specific substrate. SEAP catalyses the hydrolysis of pNPP to the final product para-nitrophenol (yellow), which can be detected in a photometric analysis using an UV-VIS reader at 405 nm. […]

[1] = Table 5, first 30 candidates, ODN 2216 agonist, n≥3
[2] = in the presence of 5 μM of the ODN 2216 agonist

Structure (SMILES) | IC50 [1] [µM] | IC50 [2] [µM] | other results
c1ccc(-c2nc3ccccc3nc2-c2ccccc2)cc1 [T0504-1257, n1c2c(nc(c1-c1ccccc1)-c1ccccc1)cccc2] | 1990 | – | –
COc1ccc2c(-c3ccccc3)cc(N3CCOCC3)nc2c1 [T0513-5752, O1CCN(CC1)c1nc2c(ccc(OC)c2)c(c1)-c1ccccc1] | 7.77 | – | –
COCCNc1ncnc2c1c(-c1ccccc1)cn2-c1ccc(OC)cc1 [T6015017, O(C)c1ccc(-n2cc(c3c2ncnc3NCCOC)-c2ccccc2)cc1] | 2030 | – | –
CCN1CCC(NCc2ccc(-n3cnc4ccccc43)cc2)CC1 [T5820428] | – | 1.78 | –
C(=C\c1ccc2ccccc2n1)/c1ccc(-n2ccnc2)cc1 [T5500062, n1c2c(ccc1\C═C\c1ccc(-n3ccnc3)cc1)cccc2] | 777 | – | –
c1ccc(-n2cc(CNCCN3CCCC3)c(-c3ccc4c(c3)OCCO4)n2)cc1 [T5581956] | – | 3.16 | –
CC(C)(c1ccccc1)c1ccc(OCCCNCCN2CCOCC2)cc1 [T5793071] | – | 6.43 | –
COc1cccc(OCCCCn2cnc3ccccc32)c1 [T6416309, O(CCCCn1c2c(nc1)cccc2)c1cc(OC)ccc1] | 13.3 | – | –
c1ccc(OCCn2c(-c3ccco3)nc3ccccc32)cc1 [T5456813, o1cccc1-c1nc2c(n1CCOc1ccccc1)cccc2] | 73.2 | – | –
COc1ccc(OCCOc2cccc3cccnc23)cc1 [T5771955, O(CCOc1ccc(OC)cc1)c1c2ncccc2ccc1] | 650 | – | –
COc1cc(CN2CCN(CCN3CCCC3)CC2)ccc1OCc1ccc(Cl)cc1 [T5428933] | – | 0.962 | –
COc1ccc(-c2nn(-c3ccccc3)cc2CNCc2ccccc2CN2CCOCC2)cc1 [T5571341] | – | 3.14 | –
CN(C)c1ccc(/C=C/c2ccc3ccccc3n2)cc1 [T0506-4124, n1c2c(ccc1\C═C\c1ccc(N(C)C)cc1)cccc2] | 312 | – | –
COc1ccc(CNc2nc3ccccc3n2CCN2CCCCC2)cc1OC [T0503-2983] | – | 6.78 | –
c1ccc(CN2CCN(c3ccnc(N4CCN(Cc5ccccc5)CC4)n3)CC2)cc1 [T5453081] | – | 1.6 | –
COc1ccc2nc3c(nc2c1)-c1cccc2cccc-3c12 [T0504-1221, O(C)c1cc2nc3-c4c5c(-c3nc2cc1)cccc5ccc4] | 65.6 | – | –
COc1cc2nc(-c3ccccc3)nc(N3CCN(CCN4CCCC4)CC3)c2cc1OC [T5669070] | – | 0.0536 | –
c1ccc(-c2cn3c(n2)CCc2ccc4cccnc4c2-3)cc1 [T0502-6934, n1c2n(cc1-c1ccccc1)-c1c(CC2)ccc2c1nccc2] | 13200 | – | –
COc1ccc(-c2nn(-c3ccccc3)cc2CNCc2ccccc2CN2CCOCC2)cc1OC [T6083277] | – | 7.51 | –
Clc1ccc(-c2nn(Cc3ccccc3)cc2CN2CCN(CCN3CCCC3)CC2)cc1 [T5535483] | – | 3.82 | –
Cc1cc(-c2ccc(-n3ccnc3)cc2)nc2ccccc12 [T5803292, n1c2c(cccc2)c(cc1-c1ccc(-n2ccnc2)cc1)C] | 4270 | – | –
CCN1CCC(NCc2cn(-c3ccccc3)nc2-c2ccc3c(c2)OCCO3)CC1 [T5581955] | – | 1.44 | –
COc1ccc(/N=C/c2ccc3ncccc3c2)cc1 [T0501-0693, O(C)c1ccc(\N═C\c2cc3c(nccc3)cc2)cc1] | 15.7 | – | –
Cc1ccc(N2CCN(/N=C/C=C/c3ccccc3)CC2)cc1 [T0505-2171, N(/N1CCN(CC1)c1ccc(cc1)C)═C\C═C\c1ccccc1] | – | – | IC50 in [μM] [1]: agonist
COc1ccc(OCCN(C)c2ncnc3c2oc2ccccc23)cc1 [T6593995, o1c2c(ncnc2N(CCOc2ccc(OC)cc2)C)c2c1cccc2] | 905 | – | –
CN(C)CCCNCc1cn(-c2ccccc2)nc1-c1ccc2c(c1)OCCO2 [T5581953] | – | 0.201 | –
COc1ccc(CCN(C)c2ncnc3c2oc2ccccc23)cc1OC [T0519-4581, o1c2c(ncnc2N(CCc2cc(OC)c(OC)cc2)C)c2c1cccc2] | 15.1 | – | –
COc1cc(/C=C/c2ccc3ccccc3n2)cc(OC)c1 [T5702130, O(C)c1cc(cc(OC)c1)\C═C\c1nc2c(cc1)cccc2] | 7.27 | – | –
COc1ccccc1N1CCN(c2ccc3ccccc3n2)CC1 [T5547436, O(C)c1ccccc1N1CCN(CC1)c1nc2c(cc1)cccc2] | 1160 | – | –
